Here are results for seven molecules from paper PMC9489211, “Regulation of pulmonary surfactant by the adhesion GPCR GPR116/ADGRF5 requires a tethered agonist-mediated activation mechanism” (eLife, 2022).

In test [1] the target is T1, full-length mGPR116 (HEK293 clone 3C) (Mus musculus, UniProt G5E8Q8).
T1 construct: expressed in transfected cells
T1 sequence (G5E8Q8 22-1348): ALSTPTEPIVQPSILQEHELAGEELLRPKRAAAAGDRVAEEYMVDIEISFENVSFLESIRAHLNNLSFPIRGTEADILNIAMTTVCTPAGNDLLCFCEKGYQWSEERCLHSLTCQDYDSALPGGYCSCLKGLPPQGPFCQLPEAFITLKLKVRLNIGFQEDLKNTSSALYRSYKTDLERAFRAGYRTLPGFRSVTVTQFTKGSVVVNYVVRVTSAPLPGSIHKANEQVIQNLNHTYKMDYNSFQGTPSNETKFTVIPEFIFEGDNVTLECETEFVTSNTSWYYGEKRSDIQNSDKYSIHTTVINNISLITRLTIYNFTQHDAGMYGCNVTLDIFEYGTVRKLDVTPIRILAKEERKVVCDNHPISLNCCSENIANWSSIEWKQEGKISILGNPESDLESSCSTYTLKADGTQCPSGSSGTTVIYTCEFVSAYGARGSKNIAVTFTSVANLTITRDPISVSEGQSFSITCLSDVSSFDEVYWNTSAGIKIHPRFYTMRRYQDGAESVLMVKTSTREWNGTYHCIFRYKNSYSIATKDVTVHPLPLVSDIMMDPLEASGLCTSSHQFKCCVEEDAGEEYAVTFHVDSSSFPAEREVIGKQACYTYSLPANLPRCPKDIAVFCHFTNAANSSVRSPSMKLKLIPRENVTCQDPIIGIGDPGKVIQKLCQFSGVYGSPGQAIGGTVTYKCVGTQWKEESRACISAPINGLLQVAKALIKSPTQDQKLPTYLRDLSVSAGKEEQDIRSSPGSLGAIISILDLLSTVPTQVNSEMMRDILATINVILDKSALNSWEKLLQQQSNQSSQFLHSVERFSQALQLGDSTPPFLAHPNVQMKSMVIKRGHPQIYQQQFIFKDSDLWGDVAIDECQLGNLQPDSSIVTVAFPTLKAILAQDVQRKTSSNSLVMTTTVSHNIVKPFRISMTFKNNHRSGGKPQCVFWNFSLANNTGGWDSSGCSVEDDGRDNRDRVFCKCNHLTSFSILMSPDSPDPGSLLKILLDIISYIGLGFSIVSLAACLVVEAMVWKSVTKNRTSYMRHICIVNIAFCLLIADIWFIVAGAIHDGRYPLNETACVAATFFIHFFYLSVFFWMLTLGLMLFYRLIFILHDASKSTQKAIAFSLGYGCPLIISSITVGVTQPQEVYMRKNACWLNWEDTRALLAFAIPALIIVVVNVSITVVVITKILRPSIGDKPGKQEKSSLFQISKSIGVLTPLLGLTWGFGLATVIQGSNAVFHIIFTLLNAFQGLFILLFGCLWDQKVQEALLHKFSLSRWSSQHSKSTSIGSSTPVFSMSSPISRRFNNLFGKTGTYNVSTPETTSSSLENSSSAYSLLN
Briefly: Calcium transient assay, full-length mGPR116 stably expressed in HEK293 (clone 3C). It is filed as cell-based. The settings on record: for activation of the mouse full-length receptor (in words): calcium flux assays, Figure 3F. The protocol: (§1) For some constructs, stable populations were generated by treating the cells with G418. After complete selection of resistant cells, these were used in assays. Stable HEK293 clones for full-length hGPR116 (clone A6) and mGPR116 (clone 3C) were described earlier ([Brown et al., 2017]).
(§2) HEK293 cells were seeded in 384-well plates (Greiner, #781946) at 30,000 cells/well. Medium was removed the following day and cells were loaded for 2 hr at 37°C, 5% CO2 with 20 µl Calcium 6 loading buffer (Molecular Devices, Cat# R8191): 1× HBSS (Gibco, Cat# 14065.049) containing 20 mM HEPES (Gibco, Cat#15630) and 2.5 mM probenecid (Sigma, Cat# P8761). Plates were then transferred to a FDSS7000 fluorescence plate reader (HAMAMATSU, Japan) and Ca^2+ responses were measured in real time using a CCD camera with excitation 480 nm/emission 540 nm. Prior to stimulation, baseline measurements were recorded over 5 s (Fmin). For stimulation, 20 µl of test compounds prepared 2× in HBSS containing 20 mM HEPES were dispensed. Fluorescence was read over 1–1.5 min. Maximum fluorescence (Fmax) was determined and normalized to baseline. Data are reported as ∆F/F = (Fmax – Fmin)/Fmin. Adequate response of the endogenous M3R was verified for each transfection, using carbachol at 100 µM and following the same procedure as for the peptide activation.
(§3) Concentration response curves were analyzed using GraphPad Prism 9.2.0. Potency was determined using a nonlinear regression model with variable slope, and statistical significance was determined using a one-way ANOVA followed by Dunnett’s multiple comparison test or a TTEST for comparison of two data sets (*p<0.05, **p<0.01, ***p<0.001, ****p<0.0001, ns, not significant).
(In general: A change in cytosolic calcium serves as a functional read-out for many receptors and channels.)

In test [2] the target is T2, full-length hGPR116 (HEK293 clone A6) (Homo sapiens, UniProt Q8IZF2).
T2 construct: expressed in transfected cells
T2 sequence (Q8IZF2 22-1346): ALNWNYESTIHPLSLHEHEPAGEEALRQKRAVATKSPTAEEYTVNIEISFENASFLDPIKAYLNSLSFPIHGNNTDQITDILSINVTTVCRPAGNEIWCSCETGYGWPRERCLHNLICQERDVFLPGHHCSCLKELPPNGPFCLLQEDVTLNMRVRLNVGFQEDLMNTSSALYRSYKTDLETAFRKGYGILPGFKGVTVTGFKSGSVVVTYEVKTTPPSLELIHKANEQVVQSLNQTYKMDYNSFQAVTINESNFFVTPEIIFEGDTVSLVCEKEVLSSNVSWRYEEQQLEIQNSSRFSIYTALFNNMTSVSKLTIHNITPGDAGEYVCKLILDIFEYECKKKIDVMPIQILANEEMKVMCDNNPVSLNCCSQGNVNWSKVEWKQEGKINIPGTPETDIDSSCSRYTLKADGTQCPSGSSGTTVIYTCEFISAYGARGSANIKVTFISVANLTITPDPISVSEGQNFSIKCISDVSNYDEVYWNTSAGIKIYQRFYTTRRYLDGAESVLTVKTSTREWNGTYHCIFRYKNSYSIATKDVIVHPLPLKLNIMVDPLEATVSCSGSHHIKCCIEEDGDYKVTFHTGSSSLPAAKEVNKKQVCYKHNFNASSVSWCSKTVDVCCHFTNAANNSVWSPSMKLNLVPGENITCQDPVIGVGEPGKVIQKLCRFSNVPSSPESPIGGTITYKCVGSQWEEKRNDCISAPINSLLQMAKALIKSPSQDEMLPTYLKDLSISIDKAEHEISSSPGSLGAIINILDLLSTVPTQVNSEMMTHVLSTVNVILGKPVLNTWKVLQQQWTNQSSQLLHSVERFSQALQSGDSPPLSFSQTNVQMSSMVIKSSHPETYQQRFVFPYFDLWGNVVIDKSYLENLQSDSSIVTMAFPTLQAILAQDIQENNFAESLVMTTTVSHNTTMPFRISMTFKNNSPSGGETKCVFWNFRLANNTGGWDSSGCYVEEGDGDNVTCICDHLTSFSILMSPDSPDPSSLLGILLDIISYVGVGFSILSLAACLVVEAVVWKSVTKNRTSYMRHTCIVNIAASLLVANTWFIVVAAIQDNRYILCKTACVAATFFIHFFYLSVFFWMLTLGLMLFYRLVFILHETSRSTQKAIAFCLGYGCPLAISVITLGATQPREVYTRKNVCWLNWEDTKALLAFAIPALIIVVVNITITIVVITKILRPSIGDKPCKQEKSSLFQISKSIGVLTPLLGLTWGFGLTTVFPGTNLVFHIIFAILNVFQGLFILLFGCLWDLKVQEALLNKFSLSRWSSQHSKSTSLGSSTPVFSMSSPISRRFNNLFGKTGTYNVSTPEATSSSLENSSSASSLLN
Nature of the test: Calcium transient assay, full-length hGPR116 stably expressed in HEK293 (clone A6). Format: cell-based. The conditions noted are these: calcium transients, hFL clone A6, Figure 3-figure supplement 2 / Figure 7A. The protocol: as §1, §2, §3

The target of test [3] is T3, mouse GPR116 full-length, V5 tagged, clone 1D8 (mouse) (UniProt G5E8Q8).
T3 sequence: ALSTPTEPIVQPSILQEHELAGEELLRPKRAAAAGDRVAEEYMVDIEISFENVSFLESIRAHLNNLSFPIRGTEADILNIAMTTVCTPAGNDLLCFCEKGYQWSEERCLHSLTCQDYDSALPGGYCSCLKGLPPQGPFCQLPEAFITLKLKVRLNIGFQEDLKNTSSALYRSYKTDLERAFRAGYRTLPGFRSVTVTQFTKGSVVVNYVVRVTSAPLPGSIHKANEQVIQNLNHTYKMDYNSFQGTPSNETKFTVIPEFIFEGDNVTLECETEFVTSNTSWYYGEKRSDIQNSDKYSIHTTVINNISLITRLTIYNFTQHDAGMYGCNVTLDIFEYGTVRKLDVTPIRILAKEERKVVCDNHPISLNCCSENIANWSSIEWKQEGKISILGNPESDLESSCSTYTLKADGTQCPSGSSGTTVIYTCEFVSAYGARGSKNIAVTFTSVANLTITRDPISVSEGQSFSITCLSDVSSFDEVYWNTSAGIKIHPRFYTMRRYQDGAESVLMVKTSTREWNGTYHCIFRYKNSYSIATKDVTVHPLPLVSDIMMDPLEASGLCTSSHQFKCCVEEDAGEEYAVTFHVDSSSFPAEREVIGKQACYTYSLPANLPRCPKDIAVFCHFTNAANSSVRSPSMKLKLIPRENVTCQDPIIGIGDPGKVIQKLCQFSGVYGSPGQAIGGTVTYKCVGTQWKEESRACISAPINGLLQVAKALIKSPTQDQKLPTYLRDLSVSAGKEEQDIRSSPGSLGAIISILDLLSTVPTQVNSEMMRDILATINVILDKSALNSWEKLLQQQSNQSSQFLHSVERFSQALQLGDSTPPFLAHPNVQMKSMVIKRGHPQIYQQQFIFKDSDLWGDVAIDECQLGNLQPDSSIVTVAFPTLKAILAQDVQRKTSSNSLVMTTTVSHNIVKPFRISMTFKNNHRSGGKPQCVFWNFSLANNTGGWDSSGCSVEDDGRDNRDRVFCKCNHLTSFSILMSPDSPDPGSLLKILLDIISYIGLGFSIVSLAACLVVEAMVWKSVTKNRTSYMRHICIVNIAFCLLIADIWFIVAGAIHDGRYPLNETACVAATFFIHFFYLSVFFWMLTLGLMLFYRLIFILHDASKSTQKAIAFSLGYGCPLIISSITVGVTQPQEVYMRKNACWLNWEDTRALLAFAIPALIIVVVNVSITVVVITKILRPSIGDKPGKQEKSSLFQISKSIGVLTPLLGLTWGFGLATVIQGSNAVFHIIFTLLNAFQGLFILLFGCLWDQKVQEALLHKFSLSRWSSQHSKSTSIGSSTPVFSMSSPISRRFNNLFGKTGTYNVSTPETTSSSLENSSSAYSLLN

Like-named read-outs stand apart in the source and are kept apart here. Where a SMILES comes first, the peptide text is derived from it. Where no end group is shown, it is not given here. [ ]: non-standard residue; d: D form. Nle = CCCC[C@H](N)C(=O)O

The EC50 is the midpoint of the concentration-response curve. As to `CCCC[C@H](NC(=O)[C@H](CC(C)C)NC(=O)[C@@H](NC(=O)[C@H](CO)NC(=O)[C@H](C)NC(=O)[C@H](CO)NC(=O)[C@@H](N)[C@@H](C)O)[C@@H](C)CC)C(=O)N[C@@H](CO)C(=O)N1CCC[C@H]1C(=O)N[C@@H](CC(=O)O)C(=O)O` [GAP10-POS3] (H-TSASIL[Nle]SPD-OH; N-terminus and C-terminus assumed), in test [1], the “activation of the mouse full-length receptor (in words)” value was “failed to activate”. Moreover, the EC50 in test [1] (calcium transient assay, HEK293 clone 3C, Fig 3F, independent experiment n=1 (mean of quadruplicate), read-out: EC50 (uM) n=1) was > 100 µM; in test [1] (calcium transient assay, HEK293 clone 3C, Fig 3F, independent experiment n=2 (mean of quadruplicate), read-out: EC50 (uM) n=2), > 100 µM; in test [1] (calcium transient assay, HEK293 clone 3C, Fig 3F, independent experiment n=3 (mean of quadruplicate), read-out: EC50 (uM) n=3) it was > 100 µM; in test [1] (calcium transient assay, HEK293 clone 3C, Fig 3F, mean of n=2-3 independent experiments, read-out: EC50 (uM) mean) it was > 100 µM. Besides, the “activation of the human full-length receptor (in words)” value in test [2] was “failed to activate”.

For the molecule TSFSILASPD [GAP10-POS7], the “activation of the mouse full-length receptor (in words)” value in test [1] is “failed to activate”. The “activation of the human full-length receptor (in words)” value in test [2] is “failed to activate”.

Regarding `CCCC[C@H](NC(=O)[C@H](C)NC(=O)[C@@H](NC(=O)[C@H](CO)NC(=O)[C@H](Cc1ccccc1)NC(=O)[C@H](CO)NC(=O)[C@@H](N)[C@@H](C)O)[C@@H](C)CC)C(=O)N[C@@H](CO)C(=O)N1CCC[C@H]1C(=O)N[C@@H](CC(=O)O)C(=O)O` [GAP10-POS6] (H-TSFSIA[Nle]SPD-OH; N-terminus and C-terminus assumed), in test [1], the “activation of the mouse full-length receptor (in words)” value was “failed to activate”. Also, in test [2], the “activation of the human full-length receptor (in words)” value is on record as “failed to activate”.

For TSFSILMSPD [GAP10], the “EC50 (uM) n=1” value in test [1] (calcium transient assay, HEK293 clone 3C, Fig 3F, independent experiment n=1 (mean of quadruplicate)) was found to be 16.0 µM. Also, the “EC50 (uM) n=2” value in test [1] (calcium transient assay, HEK293 clone 3C, Fig 3F, independent experiment n=2 (mean of quadruplicate)) turned out to be 8.6 µM. In addition, the “EC50 (uM) n=3” value in test [1] (calcium transient assay, HEK293 clone 3C, Fig 3F, independent experiment n=3 (mean of quadruplicate)) is 6.9 µM.

For the molecule PSFSIL[Nle]SPD [GAP10-Pro1], the EC50 of receptor activation (calcium transients), HEK293 cells stably expressing the receptor in test [3] worked out at 17 µM.

With TSFSIL[Nle]SPDSPDP [GAP14], the EC50 of receptor activation (calcium transients), HEK293 cells stably expressing the receptor in test [3] came out at 107 µM.

With TSFSIL[Nle]SPD [GAP10], the EC50 of receptor activation (calcium transients), HEK293 cells stably expressing the receptor in test [3] came out at 25 µM.
